Like-named read-outs stand apart in the source and are kept apart here.
Assays:
MDCK cells = test: Cell scattering behavior assay; assay type: cell-based; parameters: key: − indicates that the compound failed to significantly promote cell scattering behavior; + indicates maximum potency at or above 100 nM; ++ indicates maximum potency at or above 10 nM; +++ indicates maximum potency at or above 1 nM; ++++ indicates maximum potency at or above 0.1 nM; conditions: 5 ng/mL HGF, 24 hours, normalized particle count vs HGF alone
Protocol: MDCK cells were grown under normal conditions and observed to spontaneously form tight colonies as they proliferate. MDCK cells respond to HGF treatment by moving away from each other (scattering), which is quantified to assess the amount of HGF/MET activation in the cell population. In this experiment, MDCK cells were plated in a 96-well format, treated with HGF and exemplary compounds, fluorescently stained, imaged in large fields, and scattering behavior was quantified. Quantification was determined by analyzing the number of continuous groups of cells compared to the total stained area imaged (normalized particle counts).
MDCK cells were plated at low density in black-walled imaging plates and allowed to attach overnight at 37° C. and 5% CO2 in DMEM+10% FBS. Cells were then starved to 2 hours in DMEM without FBS (“starve media”). Samples containing exemplary compounds were prepared in DMEM without FBS and included 5 ng/mL HGF protein (“treatment media”). A control curve was also prepared for each plate using HGF concentrations of 0, 5, 10, and 20 ng/mL. Starve media was replaced with treatment media and cells were incubated for 24 hours at 37° C. and 5% CO2.
After incubation, cells were fixed by replacing treatment media with cold ethanol and incubating for 20 minutes at 4° C. Cells were then rehydrated by washing with PBS and then with stain solution (fluorescent wheat germ agglutinin; WGA488 at 20 μg/mL in PBS). Cells were incubated with stain solution 30 minutes at room temperature after which stain solution was replaced with fresh PBS.
Fields of cells were imaged using an iCyte high content imager in the green wavelength. Images were converted to binary and analyzed for particle size and particle count. For the purpose of analysis, an individual cell touching no other cells or separated colonies of cells were identified as particles, and particle counts were normalized by the total signal area to account for differences in cell number. […] Compound potency was assessed by statistical increase in normalized particle count compared to HGF treatment alone.

[1] = Non-specific protein binding (rapid equilibrium dialysis); assay type: in vitro ADME, Sprague-Dawley rats; conditions: both sexes, Sprague-Dawley, RED device, 4-hour incubation at 37° C.
Protocol: Plasma and tissue exposures of exemplary compounds were scaled by their non-specific affinity for protein binding in target tissues or fluids to determine the fraction of compound available for interaction with the target. Non-specific binding was determined in blood plasma and brain homogenate collected from mixed-sex Sprague-Dawley rats.
Known concentrations of test compounds were mixed with plasma or brain homogenate and incubated in the donor chamber of a rapid equilibrium dialysis (RED) device with empty PBS buffer in the receiving chamber. After a 4-hour incubation at 37° C. in an orbital shaking incubator, compound in each chamber was quantified by LC-MS/MS. The unbound fraction (fu,tissue) was calculated using the following formula:
[formula] • where: • fu,tissue is the unbound fraction in the tissue; • fu,homogenate is the ratio of concentration in the buffer chamber to concentration in the sample chamber; and • D is the dilution factor used to produce the sample.

[2] = In vitro stability in simulated gastric and intestinal fluids; assay type: in vitro ADME; conditions: 37° C.; for SGF + Enz (compound remaining after 4 hours): SGF with 3.2 mg/ml pepsin; for SGF + Enz (compound remaining after 4 hours) / SIF (compound remaining after 4 hours): 5 μM; for SGF (compound remaining after 4 hours): simulated gastric fluid pH 1.2, 5 μM; for SIF (compound remaining after 4 hours): simulated intestinal fluid pH 6.8 with 10 mg/ml pancreatin
Protocol: Bioavailability can be estimated by compound stability when exposed to conditions in the body. As an initial assessment of stability properties in a variety of conditions present in animals, exemplary compounds were tested for stability in a battery of simulated body compartments. Compounds were tested for stability in the following solutions: simulated gastric fluid (SGF: 34.2 mM NaCl, pH 1.2), simulated gastric fluid with the digestive enzyme pepsin (SGF+Enzyme: SGF with 3.2 mg/ml pepsin), simulated intestinal fluid with the mixture of enzymes in porcine pancreatin (SIF+Enzyme: 28.7 mM NaH2PO4, 105.7 mM NaCl, pH 6.8, 10 mg/ml pancreatin), rat plasma, and human plasma.
Test compounds were incubated at a final concentration of 5 μM in the above solutions at 37° C. with samples removed at the following time points: 0, 1, 2, and 4 hours. Reactions were stopped and prepared for quantification by addition of excess quench solution containing an internal standard (acetonitrile, 200 ng/mL bucetin). Test compound and internal standard in each sample was quantified by LC-MS/MS, and after internal normalization to bucetin, test compound concentration was expressed as a percentage of concentration at the 0-hour time point. Stability in the relevant test solution was then determined by the percent remaining at the 4-hour time point.

[3] = Oral availability calculation; assay type: in vivo, Sprague-Dawley rats; conditions: both sexes, Sprague-Dawley, plasma; rat, dose corrected AUC PO / dose corrected AUC IV x 100
Excerpt: Oral bioavailability is critical to developing small molecule therapeutics for oral administration. Calculations of oral bioavailability (% F) are accomplished by comparing in vivo pharmacokinetic data (Example B7) using IV dosing as the maximum possible exposure and determining the exposure rate after PO administration. In these studies, dose corrected AUC from PO administration was divided by dose corrected AUC from IV administration and multiplied by 100 to yield the % F. Results are shown in Table 9.

[4] = Parallel artificial membrane permeability assay (PAMPA); assay type: in vitro ADME; conditions: PBS, room temperature
Protocol: Bioavailable drugs must permeate the cellular membranes of the lining of the digestive tract. To estimate the penetrability of exemplary compounds, the in vitro parallel artificial membrane permeability assay (PAMPA) was utilized.
Test compounds must have a standard curve in the final read plate to determine partitioned concentration of each drug. A 6-point standard curve was prepared for each compound from 0 to 200 μM in phosphate-buffered saline (PBS).
Test compound solution (300 μL in PBS) was added to the donor (bottom) well of the PAMPA plate in 5 replicates and PBS vehicle (200 μL) was added to the acceptor (top) wells of appropriate wells to match the loading of the donor plate. The bottom and top of the PAMPA plates were then sandwiched together. The PAMPA plates were then incubated at room temperature for 5 hours. After incubation, 150 μL of donor solution was added to a UV compatible plate containing the corresponding standard curve. 150 μL of acceptor well solution was added adjacent to the corresponding standard curve and donor well samples for that compound. The plate was then read using a UV plate reader.
Permeability and membrane retention were then calculated based on the following formulas:
Permeability (cm/s): (Pe)(cm/s)={−ln [1−CA(t)/Ceq]}/[A*(1/VD+1/VA)*t] (equation 1) • where: • A=filter area (0.3 cm^2); • VD=donor well volume (0.3 mL); • VA=acceptor well volume (0.2 mL); • t=incubation time (seconds); • CA(t)=compound concentration in acceptor well at time t; • CD(t)=compound concentration in donor well at time t; and • Ceq=[CD(t)*VD+CA(t)*VA]/(VD+VA).
Membrane Retention (R)=1−[CD(t)*VD+CA(t)*VA]/(C0*VD) (equation 2) • where: • CD(t), VD, CA(t), and VA are as defined for equation 1, and • C0=initial concentration in donor well (200 uM).

[5] = rat blood plasma, read-out: Unbound Fraction Plasma
[6] = rat brain homogenate, read-out: Unbound Fraction Brain

| Structure (SMILES) | fraction unbound at 4 h [1, 5] | fraction unbound at 4 h [1, 6] | bioavailability [3] | Papp at 5 h, 200 µM [4] | Potency (cell scattering) (MDCK cells) | SGF + Enz (compound remaining after 4 hours) [2] | SGF (compound remaining after 4 hours) [2] | SIF (compound remaining after 4 hours) [2] | Permeability ([4]; 5 hours) |
| --- | --- | --- | --- | --- | --- | --- | --- | --- | --- |
| CCC(C)CN1CC2N(Cc3ccc(C(F)(F)F)cc3)CCC(=O)N2[C@@H](C)C1=O (some centres unmarked) [Compound 5a] | < 0.1 | < 0.1 | 1 to 25% | < 2 ×10⁻⁶ cm/s | ++++ (++++ indicates maximum potency at or above 0.1 nM) | + (+ indicates 20-39% compound remaining after 4 hours) | +++ (+++ indicates 80-99% compound remaining after 4 hours) | +++ (+++ indicates 80-99% compound remaining after 4 hours) |  |
| CCC(C)CN1CC2N(Cc3ccc(O)nc3)CCC(=O)N2[C@@H](C)C1=O (some centres unmarked) [Compound 7a] | > 0.9 | 0.5 to 0.9 | < 1% | > 10 ×10⁻⁶ cm/s | ++ (++ indicates maximum potency at or above 10 nM) | +++ (+++ indicates 80-99% compound remaining after 4 hours) | ++++ (++++ indicates 100% compound remaining after 4 hours) | ++ (++ indicates 40-79% compound remaining after 4 hours) |  |
| CCC(C)CN1CC2N(C(=O)c3ccc(C(F)(F)F)c(Cl)c3)CCC(=O)N2C(C)C1=O (centres unmarked) [Compound 12, 1-(3-chloro-4-(trifluoromethyl)benzoyl)-6-methyl-8-(2-methylbutyl)hexahydro-4H-pyrazino[1,2-a]pyrimidine-4,7(6H)-dione] | 0.1 to 0.5 | 0.1 to 0.5 | 25 to 50% | < 2 ×10⁻⁶ cm/s | ++ (++ indicates maximum potency at or above 10 nM) | +++ (+++ indicates 80-99% compound remaining after 4 hours) | +++ (+++ indicates 80-99% compound remaining after 4 hours) | ++ (++ indicates 40-79% compound remaining after 4 hours) |  |
| CCCCN1CC2N(C(=O)c3ccc(OC(F)F)cc3)CCC(=O)N2C(C)C1=O (centres unmarked) [Compound 17] |  |  |  | > 2 ×10⁻⁶ cm/s | − | +++ (+++ indicates 80-99% compound remaining after 4 hours) | +++ (+++ indicates 80-99% compound remaining after 4 hours) | +++ (+++ indicates 80-99% compound remaining after 4 hours) |  |
| CCC(C)CN1CC2N(C(=O)c3ccc(O)cc3)CCC(=O)N2[C@@H](C)C1=O (some centres unmarked) [Compound 8a] |  |  |  |  | +++ (+++ indicates maximum potency at or above 1 nM) | +++ (+++ indicates 80-99% compound remaining after 4 hours) | ++++ (++++ indicates 100% compound remaining after 4 hours) | +++ (+++ indicates 80-99% compound remaining after 4 hours) | + (+ indicates permeability above 1 × 10^−5 cm/s) |

Continued, in another order:

| fraction unbound at 4 h [1, 5] | fraction unbound at 4 h [1, 6] | bioavailability [3] | Papp at 5 h, 200 µM [4] | Structure (SMILES) | Potency (cell scattering) (MDCK cells) | SGF + Enz (compound remaining after 4 hours) [2] | SGF (compound remaining after 4 hours) [2] | SIF (compound remaining after 4 hours) [2] | Permeability ([4]; 5 hours) |
| --- | --- | --- | --- | --- | --- | --- | --- | --- | --- |
| 0.1 to 0.5 | > 0.9 | > 50% | > 2 ×10⁻⁶ cm/s | CC1C(=O)N(CC2CCC2)CC2N(C(=O)c3ccc(OC(F)F)cc3)CCC(=O)N12 (centres unmarked) [Compound 14] |  | ++ (++ indicates 40-79% compound remaining after 4 hours) | ++ (++ indicates 40-79% compound remaining after 4 hours) | +++ (+++ indicates 80-99% compound remaining after 4 hours) |  |
| 0.1 to 0.5 | 0.5 to 0.9 | > 50% | < 2 ×10⁻⁶ cm/s | CC1C(=O)N(CCC2CCC2)CC2N(C(=O)c3ccc(C(F)(F)F)cc3)CCC(=O)N12 (centres unmarked) [Compound 20] | +++ (+++ indicates maximum potency at or above 1 nM) | +++ (+++ indicates 80-99% compound remaining after 4 hours) | +++ (+++ indicates 80-99% compound remaining after 4 hours) | +++ (+++ indicates 80-99% compound remaining after 4 hours) |  |
| 0.5 to 0.9 | 0.1 to 0.5 | 25 to 50% | > 2 ×10⁻⁶ cm/s | CCC(C)CN1CC2N(C(=O)c3ccc(C(F)(F)F)cc3)CCC(=O)N2[C@@H](C)C1=O (some centres unmarked) [Compound 1a] | ++++ (++++ indicates maximum potency at or above 0.1 nM) | ++++ (++++ indicates 100% compound remaining after 4 hours) | ++++ (++++ indicates 100% compound remaining after 4 hours) | ++++ (++++ indicates 100% compound remaining after 4 hours) |  |
|  |  |  | < 2 ×10⁻⁶ cm/s | CC1C(=O)N(CCC2CCCC2)CC2N(C(=O)c3ccc(C(F)(F)F)cc3)CCC(=O)N12 (centres unmarked) [Compound 19] | +++ (+++ indicates maximum potency at or above 1 nM) | ++ (++ indicates 40-79% compound remaining after 4 hours) | +++ (+++ indicates 80-99% compound remaining after 4 hours) | + (+ indicates 20-39% compound remaining after 4 hours) |  |

— patent US20240025903A1, “Bicyclic Compounds and Uses Thereof for the Treatment of Diseases” (Athira Pharma, Inc., priority 2020, published 2024)
